Reference: patent publication US10669242B2 (priority 2016, dated 2020)
Where a name gives a salt, the structure may show the parent alone.

Target: T1, recombinant glucosyltransferase domain of C. difficile Toxin B/TcdB (Clostridioides difficile, UniProt P18177)
T1 construct: 6-His (C); purchased R&D Systems 6246-GT
Assay: biochemical

T1 sequence (P18177 1-543): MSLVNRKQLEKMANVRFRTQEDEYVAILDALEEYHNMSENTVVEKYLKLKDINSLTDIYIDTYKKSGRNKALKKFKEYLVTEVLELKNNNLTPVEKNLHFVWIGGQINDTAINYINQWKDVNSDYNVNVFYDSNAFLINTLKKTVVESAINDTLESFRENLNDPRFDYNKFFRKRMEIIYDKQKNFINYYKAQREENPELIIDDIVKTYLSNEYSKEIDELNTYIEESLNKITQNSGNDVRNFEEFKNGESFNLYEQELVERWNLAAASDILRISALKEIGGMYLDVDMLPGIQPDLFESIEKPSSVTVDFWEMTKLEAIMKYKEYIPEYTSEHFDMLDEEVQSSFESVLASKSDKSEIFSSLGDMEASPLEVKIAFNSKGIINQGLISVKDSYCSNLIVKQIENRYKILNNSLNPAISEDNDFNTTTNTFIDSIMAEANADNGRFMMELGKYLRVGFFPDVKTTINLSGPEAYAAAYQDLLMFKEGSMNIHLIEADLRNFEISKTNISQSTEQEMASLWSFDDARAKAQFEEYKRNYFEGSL

Structure (SMILES) | IC50 [nM]
Cc1ccc(NC(=O)c2ccc(CN3C(=O)c4ccc(Cl)cc4NC(=O)[C@H]3CCN3CCC(O)CC3)cc2)nc1 [Example 10c, (R)-4-((8-chloro-3-(2-(4-hydroxypiperidin-1-yl)ethyl)-2,5-dioxo-2,3-dihydro-1H-benzo[e][1,4]diazepin-4(5H)-yl)methyl)-N-(5-methylpyridin-2-yl)benzamide] | 1000 to 10000
Cc1ccc(NC(=O)c2ccc(CN3C(=O)c4ccc(Cl)cc4NC(=O)[C@H]3CCN3CCN(C)CC3)cc2)nc1 [Example 10d, (R)-4-((8-chloro-3-(2-(4-methylpiperazin-1-yl)ethyl)-2,5-dioxo-2,3-dihydro-1H-benzo[e][1,4]diazepin-4(5H)-yl)methyl)-N-(5-methylpyridin-2-yl)benzamide] | 1000 to 10000
Cc1ccc(NC(=O)c2ccc(CN3C(=O)c4ccc(Cl)cc4NC(=O)[C@H]3CCN3CCNC(=O)C3)cc2)nc1 [Example 10e] | 1000 to 10000
Cc1ccc(NC(=O)c2ccc(CN3C(=O)c4ccc(Cl)cc4NC(=O)[C@H]3CCN(C)C)cc2)nc1 [Example 10f, (R)-4-((8-chloro-3-(2-(dimethylamino)ethyl)-2,5-dioxo-2,3-dihydro-1H-benzo[e][1,4]diazepin-4(5H)-yl)methyl)-N-(5-methylpyridin-2-yl)benzamide] | 10000 to 35000
O=C1Nc2cc(Cl)ccc2C(=O)N(C[C@H]2CC[C@H](C(=O)c3ccccn3)CC2)[C@@H]1Cc1ccccn1 [Example 11c, (R)-8-chloro-4-((4-picolinoylcyclohexyl)methyl)-3-(pyridin-2-ylmethyl)-3,4-dihydro-1H-benzo[e][1,4]diazepine-2,5-dione] | < 100
Cc1ccnc(C(=O)c2ccc(CN3C(=O)c4ccc(Cl)cc4NC(=O)[C@H]3Cc3ccccn3)cc2)c1 [Example 11d, (R)-8-chloro-4-(4-(4-methylpicolinoyl)benzyl)-3-(pyridin-2-ylmethyl)-3,4-dihydro-1H-benzo[e][1,4]diazepine-2,5-dione] | < 100
Cc1cccc(C(=O)c2ccc(CN3C(=O)c4ccc(Cl)cc4NC(=O)[C@H]3Cc3ccccn3)cc2)n1 [Example 11e, (R)-8-chloro-4-(4-(6-methylpicolimoyl)benzyl)-3-(pyridin-2-ylmethyl)-3,4-dihydro-1H-benzo[e][1,4]diazepine-2,5-dione] | 100 to 999
O=C(c1ccccn1)c1ccc(CN2C(=O)c3ccc(Cl)cc3NC(=O)[C@H]2Cc2ccccn2)cc1F [Example 11f, (R)-8-chloro-4-(3-fluoro-4-picolinoylbenzyl)-3-(pyridin-2-ylmethyl)-3,4-dihydro-1H-benzo[e][1,4]diazepine-2,5-dione] | < 100
Cc1cc(CN2C(=O)c3ccc(Cl)cc3NC(=O)[C@H]2Cc2ccccn2)ccc1C(=O)c1ccccn1 [Example 11h, (R)-8-chloro-4-(3-methyl-4-picolinoylbenzyl)-3-(pyridin-2-ylmethyl)-3,4-dihydro-1H-benzo[e][1,4]diazepine-2,5-dione] | < 100
Cc1cccnc1C(=O)c1ccc(CN2C(=O)c3ccc(Cl)cc3NC(=O)[C@H]2Cc2ccccn2)cc1F [Example 11i, (R)-8-chloro-4-(3-fluoro-4-(3-methylpicolinoyl)benzyl)-3-(pyridin-2-ylmethyl)-3,4-dihydro-1H-benzo[e][1,4]diazepine-2,5-dione] | 1000 to 10000
COc1cc(CN2C(=O)c3ccc(Cl)cc3NC(=O)[C@H]2Cc2ccccn2)ccc1C(=O)c1ccccn1 [Example 11j, (R)-8-chloro-4-(3-methoxy-4-picolinoylbenzyl)-3-(pyridin-2-ylmethyl)-3,4-dihydro-1H-benzo[e][1,4]diazepine-2,5-dione] | < 100
CC(=O)NC(=O)c1ccc(CN2C(=O)c3ccc(Cl)cc3NC(=O)[C@H]2Cc2ccccn2)cc1 [Example 12a, (R)—N-Acetyl-4-((8-chloro-2,5-dioxo-3-(pyridin-2-ylmethyl)-2,3-dihydro-1H-benzo[e][1,4]diazepin-4(5H)-yl)methyl)benzamide] | < 100
O=C1Nc2cc(Cl)ccc2C(=O)N(Cc2ccc(C(=O)N3CCCC3=O)cc2)[C@@H]1Cc1ccccn1 [Example 12b, (R)-8-chloro-4-(4-(2-oxopyrrolidine-1-carbonyl)benzyl)-3-(pyridin-2-ylmethyl)-3,4-dihydro-1H-benzo[e][1,4]diazepine-2,5-dione] | 1000 to 10000
NC(=O)c1ccc(CN2C(=O)c3ccc(Cl)cc3NC(=O)[C@@H]2Cc2ccc(Cl)c(Cl)c2)cc1 [Example 13a, (S)-4-((8-Chloro-3-(3,4-dichlorobenzyl)-2,5-dioxo-2,3-dihydro-1H-benzo[e][1,4]diazepin-4(5H)-yl)methyl)benzamide] | 10000 to 35000
CN(C)C(=O)c1ccc(CN2C(=O)c3ccc(Cl)cc3NC(=O)[C@H]2Cc2cccnc2)cc1 [Example 13b, (R)-4-((8-chloro-2,5-dioxo-3-(pyridin-3-ylmethyl)-2,3-dihydro-1H-benzo[e][1,4]diazepin-4(5H)-yl)methyl)-N,N-dimethylbenzamide] | 10000 to 35000
NC(=O)c1ccc(CN2C(=O)c3ccc(Cl)cc3NC(=O)[C@H]2Cc2cccnc2)cc1 [Example 13c, (R)-4-((8-chloro-2,5-dioxo-3-(pyridin-3-ylmethyl)-2,3-dihydro-1H-benzo[e][1,4]diazepin-4(5H)-yl)methyl)benzamide] | 1000 to 10000
NC(=O)c1ccc(CN2C(=O)c3ccc(Cl)cc3NC(=O)[C@H]2Cc2ccccn2)cc1 [Example 13d] | 100 to 999
N#Cc1ccc2c(c1)NC(=O)[C@@H](Cc1cccnc1)N(Cc1ccc(C(=O)Nc3ccccn3)cc1)C2=O [Example 14a, (R)-4-((8-Cyano-2,5-dioxo-3-(pyridin-3-ylmethyl)-2,3-dihydro-1H-benzo[e][1,4]diazepin-4(5H)-yl)methyl)-N-(pyridin-2-yl)benzamide Hydrochloride] | < 100
O=C(NS(=O)(=O)c1ccccc1)c1ccc(CN2C(=O)c3ccc(Cl)cc3NC(=O)[C@H]2Cc2cccnc2)cc1 [Example 15a, (R)-4-((8-Chloro-2,5-dioxo-3-(pyridin-3-ylmethyl)-2,3-dihydro-1H-benzo[e][1,4]diazepin-4(5H)-yl)methyl)-N-(phenylsulfonyl)benzamide] | 1000 to 10000
CS(=O)(=O)NC(=O)c1ccc(CN2C(=O)c3ccc(Cl)cc3NC(=O)[C@H]2Cc2cccnc2)cc1 [Example 15b, (R)-4-((8-chloro-2,5-dioxo-3-(pyridin-3-ylmethyl)-2,3-dihydro-1H-benzo[e][1,4]diazepin-4(5H)-yl)methyl)-N-(methylsulfonyl)benzamide] | 1000 to 10000
O=C(NS(=O)(=O)c1ccc(Cl)cc1)c1ccc(CN2C(=O)c3ccc(Cl)cc3NC(=O)[C@H]2Cc2cccnc2)cc1 [Example 15c, (R)-4-((8-chloro-2,5-dioxo-3-(pyridin-3-ylmethyl)-2,3-dihydro-1H-benzo[e][1,4]diazepin-4(5H)-yl)methyl)-N-((4-chlorophenyl)sulfonyl)benzamide] | 1000 to 10000
COc1ccc(S(=O)(=O)NC(=O)c2ccc(CN3C(=O)c4ccc(Cl)cc4NC(=O)[C@H]3Cc3cccnc3)cc2)cc1 [Example 15d, (R)-4-((8-chloro-2,5-dioxo-3-(pyridin-3-ylmethyl)-2,3-dihydro-1H-benzo[e][1,4]diazepin-4(5H)-yl)methyl)-N-((4-methoxyphenyl)sulfonyl)benzamide] | 1000 to 10000
Cc1ccc(S(=O)(=O)NC(=O)c2ccc(CN3C(=O)c4ccc(Cl)cc4NC(=O)[C@H]3Cc3cccnc3)cc2)cc1 [Example 15e, (R)-4-((8-chloro-2,5-dioxo-3-(pyridin-3-ylmethyl)-2,3-dihydro-1H-benzo[e][1,4]diazepin-4(5H)-yl)methyl)-N-tosylbenzamide] | 1000 to 10000
Cc1ccc(NC(=O)c2ccc(CN3C(=O)c4ccc(N)cc4NC(=O)[C@H]3C)cc2)nc1 [Example 16a, (R)-4-((8-Amino-3-methyl-2,5-dioxo-2,3-dihydro-1H-benzo[e][1,4]diazepin-4(5H)-yl)methyl)-N-(5-methylpyridin-2-yl)benzamide] | 1000 to 10000
CC(=O)Nc1ccc2c(c1)NC(=O)[C@@H](C)N(Cc1ccc(C(=O)Nc3ccc(C)cn3)cc1)C2=O [Example 17a, (R)-4-((8-Acetamido-3-methyl-2,5-dioxo-2,3-dihydro-1H-benzo[e][1,4]diazepin-4(5H)-yl)methyl)-N-(5-methylpyridin-2-yl)benzamide] | 100 to 999
COCCC(=O)Nc1ccc2c(c1)NC(=O)[C@@H](C)N(Cc1ccc(C(=O)Nc3ccc(C)cn3)cc1)C2=O [Example 18a, (R)-4-((8-(3-Methoxypropanamido)-3-methyl-2,5-dioxo-2,3-dihydro-1H-benzo[e][1,4]diazepin-4(5H)-yl)methyl)-N-(5-methylpyridin-2-yl)benzamide] | 1000 to 10000
Cc1ccc(NC(=O)c2ccc(CN3C(=O)c4ccc(NC(=O)C(C)C)cc4NC(=O)[C@H]3C)cc2)nc1 [Example 18b, (R)-4-((8-isobutyramido-3-methyl-2,5-dioxo-2,3-dihydro-1H-benzo[e][1,4]diazepin-4(5H)-yl)methyl)-N-(5-methylpyridin-2-yl)benzamide] | 10000 to 35000
Cc1ccc(NC(=O)c2ccc(CN3C(=O)c4ccc(NC(=O)c5cc(C)on5)cc4NC(=O)[C@H]3C)cc2)nc1 [Example 18c, (R)-5-methyl-N-(3-methyl-4-(4-((5-methylpyridin-2-yl)carbamoyl)benzyl)-2,5-dioxo-2,3,4,5-tetrahydro-1H-benzo[e][1,4]diazepin-8-yl)isoxazole-3-carboxamide] | 1000 to 10000
Cc1ccc(NC(=O)c2ccc(CN3C(=O)c4ccc(NC(=O)c5ccccn5)cc4NC(=O)[C@H]3C)cc2)nc1 [Example 18d, (R)-N-(3-methyl-4-(4-((5-methylpyridin-2-yl)carbamoyl)benzyl)-2,5-dioxo-2,3,4,5-tetrahydro-1H-benzo[e][1,4]diazepin-8-yl)picolinamide] | 10000 to 35000
Cc1ccc(NC(=O)c2ccc(CN3C(=O)c4ccc(NC(=O)c5cccnc5)cc4NC(=O)[C@H]3C)cc2)nc1 [Example 18e, (R)-N-(3-methyl-4-(4-((5-methylpyridin-2-yl)carbamoyl)benzyl)-2,5-dioxo-2,3,4,5-tetrahydro-1H-benzo[e][1,4]diazepin-8-yl)nicotinamide] | 1000 to 10000
